B1: NT-3: Neurotrophin-3, binds to TRKC; used to promote differentiation of proprioceptors (protein, UniProt P20783 139-257, looked up)
Neurotrophin-3: YAEHKSHRGEYSVCDSESLWVTDKSSAIDIRGHQVTVLGEIKTGNSPVKQYFYETRCKEARPVKNGCRGIDDKHWNSQCKTSQTYVRALTSENNKLVGWRWIRIDTSCVCALSRKIGRT

Each molecule was assayed on SNs differentiated from NCCs replated on day 12 (assay: SN subtype enrichment with growth factors, TRKA/TRKB/TRKC quantified by flow cytometry (FACS) on day 20). Conditions: NCCs replated day 12 in SN differentiation media containing GDNF and the indicated growth factor; FACS analysis on day 20; FIG. 7B.
Assay type: cell-based, human
Source text: FIGS. 7A-7G illustrates strategies for SN subtype enrichment (related to FIGS. 3A-3F). FIG. 7A is a schematic of an initial approach. On day 12 of differentiation, NCCs were replated using SN differentiation media containing GDNF and the indicated growth factors and analyzed by flow cytometry. FIG. 7B is a bar graph showing quantification of SNs differentiated using enrichment media as indicated on 7A. SNs were stained with TRKA, TRKB and TRKC antibodies and quantified by flow cytometry. DAPI was used as viability dye. FIGS. 7C-7F are a series of scatter plots showing identification (7C) of subpopulation of noci- (7D), mechano- (7E), and proprioceptor (7F) enrichment by flow cytometry. Side scatter and forward scatter showing gated areas where each subtype is enriched and the percentages of each subpopulation are shown. FIG. 7G is a bar graph showing NGN2 and NGN1 waves are present during SN differentiation. RNA from SN-biased NCCs was obtained on each indicated day and NGN1 and NGN2 expression was measured by RT-qPCR. In all experiments N>4. Graphs show mean±S.D.
Cells were dissociated with Accutase for 20 min and then washed in Flow buffer: DMEM 2% FBS and 1 mM L-glutamine. Cells were centrifuged at 200 g for 4 min and resuspended in cold PBS, they were counted and diluted to a concentration of 1×10^6 cells/100 μL and incubated for 20 min (CD49d) or 1 h (TRKA, B and C) with conjugated antibody. Cells were then washed twice in Flow buffer, and incubated with DAPI (1:1,000) in 300 μL of Flow buffer for 5 mins. Cells were filtered and transferred to a 96-well plate. Samples were run using a Cytoflex S (Beckman). All subsequent analysis was done using FlowJo.
Contrary to previous reports (Alshawaf, et al., Scientific Reports 8, 603 (2018), Chambers, et al., Nat. Biotechnol. 30, 715-720 (2012), Schrenk-Siemens, et al., Nat. Neurosci. 18, 10-550 16 (2015)), the investigated protocol generates all three SN subtypes (FIG. 1H, 1I). Thus, methods to enrich distinct SN subtypes from bulk cultures were investigated. […]

Molecule | SN subtype enrichment (TRKA, TRKB, TRKC by FACS)
BDNF: Brain-derived neurotrophic factor, binds to TRKB; used to promote differentiation of mechanoreceptors | no subtype enrichment
NGF: Nerve growth factor, binds to TRKA; used to promote differentiation of nociceptors | no subtype enrichment
B1 | no subtype enrichment

Each molecule was assayed on hESC-derived SNs (assay: Multi-electrode array (MEA) recording of SN firing after incubation with nociceptor agonists). Conditions: titrated, incubated for 1 min before data acquisition; 5 min recordings; normalized to untreated control (basal); FIG. 2K.
Assay type: cell-based, human
Procedure: Experiments were performed using a Maestro Pro (Axion Biosystems) MEA system. CytoView MEA 96 plates containing 8 embedded electrodes/well were coated with PO/LM/FN 448 and seeded with NCCs (day 6 or 12) or SNs (day 30). Repeated recordings were made every 5 days at 37° C. with a sampling frequency of 12.5 kHz for 5 min. Recordings from at least 6 wells were averaged per reading. Bursts were detected using Inter-Spike Interval (ISI). Capsaicin, WIN 55,212 and Pregnenolone were titrated and incubated for 1 min before data acquisition. Hypoosomotic media was obtained by mixing Sensory neuron media with sterile water in a 45:55 ratio, treatment was done for 1 min.

Molecule | firing rate of SNs (MEA)
CC(=O)[C@H]1CC[C@H]2[C@@H]3CC=C4C[C@@H](O)CC[C@]4(C)[C@H]3CC[C@]12C [pregnenolone] | increased firing rate
COc1cc(CNC(=O)CCCC/C=C/C(C)C)ccc1O [capsaicin] | increased firing rate
Cc1c(C(=O)c2cccc3ccccc23)c2cccc3c2n1[C@H](CN1CCOCC1)CO3 [WIN 55, 212-2] | increased firing rate

Reference: patent publication US20220195386A1, “COMPOSITIONS AND METHODS FOR MAKING SENSORY NEURONS” (University of Georgia Research Foundation, Inc., priority 2020, published 2022)
